From PMC10959927, “Platinum iodido drugs show potential anti-tumor activity, affecting cancer cell metabolism and inducing ROS and senescence in gastrointestinal cancer cells” (Communications Biology, 2024)
Several values for one entry are separate records, joined by “and”; a condition that tells them apart may be missing. Identical values can stand only once.

Columns and labels:
[1] = system: CC2509 fibroblasts; assay: Cell viability, crystal violet staining, non-tumoral cells; details: CC2509, 48 h
Description: (§1) Cell viability was assessed using a crystal violet-based staining method. […] The cells (2 × 10^5) were seeded in 24-multiwell dishes in 0.5 mL of complete medium and incubated overnight. […] After 48 h, cells were fixed with 1% glutaraldehyde (20–30 min), washed with distilled water, and stained with 0.1% crystal violet. […] IC50 were calculated by using GraphPad Prism (version 8.0). Nonlinear regression was used to fit the data to the log (inhibitor) versus response (variable slope).

[2] = system: HPDE cells; assay: as above; details: for percentage of viable cells: 48 h
Description: as §1

[3] = system: PANC1 cells; assay: Flow cytometry mitochondrial mass and membrane potential (MitoTracker Green / CMXRos); type: cell-based, human
Description: (§2) We used flow cytometry to study the mitochondrial mass, mitochondrial membrane potential (ΔΨm) and cellular senescence of untreated and treated cells. Cells (5 × 10^4) were seeded in 24-multiwell dishes and cultured overnight. […] Cells were tripsinized, stained with Mitoprobes and resuspended in Flow buffer [1X PBS; 3% Fetal Bovine Serum (v/v); 3 mM EDTA (v/v)] before analysis with a 4-laser Attune NxT Acoustic Cytometer (Thermo Fisher Scientific). For Mitoprobe assays, […] DAPI (Sigma) was used to exclude dead cells. Data were analyzed with FlowJo 9.3 software (Tree Star Inc., Ashland, OR). For mitochondrial mass and ΔΨm measurement, Mitotracker Green (MTGreen, M7514, Invitrogen) and Mitotracker Red CMXRos (CMXROS, M7512, Invitrogen) were used, respectively. Probes were incubated with cells for 30 min at 37 °C at a concentration of 100 nM (MTGreen) and 20 nM (CMXROS), and fluorescence was detected using the filters (Ex488nm/Em530/30) BL1 and (Ex561nm/Em585/16) YL1, respectively. To determine mitochondria functionality, the ratio between ΔΨm (MitoTracker Red CMXRos) versus Mit. Mass (MitoTracker Green) was calculated. The gating strategy used in all the Flow Cytometry experiments is reflected in Fig.S10.

[4] = system: AGS cells; assay: as above; type: cell-based, human; details: fold change vs C, replicates
Description: as §2

[5] = system: MKN45 cells; assay: as above; type: cell-based, human
Description: as §2

[6] = system: PANC1 cells; assay: SA-β-Gal activity, CellEvent Senescence Green flow cytometry;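 further: IC50 concentration of each compound relative to untreated control set as 1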; type: cell-based, human; details: Fig. 3A, replicate values
Description: (§3) SA-β-Gal activity was measured following two different approaches. (i) AGS, MKN45 and PANC1 cells (5 × 10^4) were seeded in 24-multiwell dishes and incubated overnight. […] For flow cytometry cell senescence detection, cells were tripsinized, fixed for 15 min with PFA 4% and stained with the CellEvent Senescense Green Flow Cytometry Assay Kit (C10840, Invitrogen) according to manufacturer’s instructions. CellEvent Senescense Green Probe was used at a 1:500 dilution and fluorescence was detected using the filter (Ex488nm/Em530/30) BL1 with a 4-laser Attune NxT Acoustic Cytometer (Thermo Fisher Scientific). […] After 3 h, the treatments were removed, new supplemented medium was added, and cells were incubated for an additional 24 h. Finally, SA-β-Gal staining was performed using the Senescence Cells Histochemical Staining Kit (CS0030-1KT) according to the manufacturer’s instructions.

[7] = system: AGS cells; assay: as above; type: cell-based, human; details: Fig. 3A, replicate values
Description: as §3

[8] = system: MKN45 cells; assay: as above; type: cell-based, human; details: Fig. 3A, replicate values
Description: as §3

[9] = system: AGS cells; assay: SA-β-Gal histochemical staining; type: cell-based, human; details: Fig. S4A
Description: as §3

[10] = system: PANC1 cells; assay: Immunofluorescence of γ-H2AX and 53BP1 foci; type: cell-based, human; details: for foci/cell, share of cells in class (Suma 100) / foci/cell, number of cells in class: PANC1, Fig. 3B; for foci/cell, number of cells in class: cell count
Description: (§4) Cells (7 × 10^4) were seeded on 20 mm coverslips. […] Coverslips were incubated for 1 h with the primary antibody (Cell Signaling: H2AX Ser139 (#2595) and 53BP1 (#4937)) at room temperature, followed by a 1 h incubation with the appropriate secondary antibody. DNA was stained with DAPI. Fluorescence microscopy was performed using a NIKON Eclipse 90i. The image analysis was performed using the software program Nikon NIS-Elements and Image J.

[11] = system: AGS cells; assay: Immunofluorescence of γ-H2AX and 53BP1 foci; type: cell-based, human; details: for foci/cell, share of cells in class (Suma 100) / foci/cell, number of cells in class: Fig. 3B; for foci/cell, number of cells in class: cell count
Description: as §4

[12] = read-out: IC50 concentration (± SD) at 48 h in non-tumoral cell lines
[13] = PANC1, fold change vs C, replicates
[14] = MKN45, fold change vs C, replicates

CC(C)[NH][Pt@SP3]([I])([I])[NH]C(C)C [I5, trans-[PtI2(isopropylamine)2]]
percentage of viable cells ([1]; dose 2.5 µM): 100.938% and 100.862% and 91.106%
percentage of viable cells ([1]; dose 5 µM): 83.0553% and 85.5747% and 89.9658%
percentage of viable cells ([1]; dose 10 µM): 93.9868% and 89.8276% and 94.7548%
percentage of viable cells ([1]; dose 25 µM): 85.5057% and 58.6494% and 84.1505%
percentage of viable cells ([1]; dose 50 µM): 74.4584% and 49.6552% and 58.3178%
percentage of viable cells ([1]; dose 100 µM): 38.4658% and 29.1313% and 33.9772%
IC50 [1, 12]: 74.1 ± 5.42 µM
percentage of viable cells ([2]; dose 2.5 µM): 94.0083% and 103.787% and 91.0112%
percentage of viable cells ([2]; dose 5 µM): 95.3512% and 98.9765% and 89.3059%
percentage of viable cells ([2]; dose 10 µM): 88.9979% and 69.4985% and 69.7172%
percentage of viable cells ([2]; dose 25 µM): 58.8843% and 42.8352% and 30.2314%
percentage of viable cells ([2]; dose 50 µM): 20.4029% and 27.175% and 15.1157%
IC50 [2, 12]: 26 µM and 25 µM and 26.8 µM
Fold change ΔΨm/MM ([3]; PANC1, IC50 doses 24 h, CMX-ROS/MitoGreen ratio vs untreated 1.0): 0.46 and 0.55 and 0.5
Fold change %CMXROS, ΔΨm [3, 13]: 1.17 and 1.2 and 1.05
Fold change %MTGreen, MM [3, 13]: 2.17 and 2.54 and 2.28
Fold change %CMXROS, ΔΨm [4]: 0.96 and 0.93 and 0.85
Fold change %MTGreen, MM [4]: 1.08 and 1.04 and 1.0618
Fold change ΔΨm/MM ([5]; MKN45, IC50 doses 24 h, CMX-ROS/MitoGreen ratio vs untreated 1.0): 0.47 and 0.42 and 0.46
Fold change %CMXROS, ΔΨm [5, 14]: 0.4 and 0.35 and 0.72
Fold change %MTGreen, MM [5, 14]: 0.86 and 0.82 and 1.11
Fold change % Senescence [6]: 2.58 fold change and 1.93 fold change and 2.21 fold change
Fold change % Senescence [7]: 2.4 fold change and 2.38 fold change and 2.1 fold change
Fold change % Senescence [8]: 6.84 fold change and 6.77 fold change and 7.76 fold change
Fold change % Senescence [9]: 58.06% and 57.14% and 43.1%
foci/cell: number of cells with 16-30 foci ([10]; PANC1, Fig. S4B, cell counts): 11
foci/cell: number of cells with 31-45 foci ([10]; PANC1, Fig. S4B, cell counts): 3
foci/cell: number of cells with 46-60 foci ([10]; PANC1, Fig. S4B, cell counts): 1
foci/cell: number of cells with <15 foci ([10]; PANC1, Fig. S4B, cell counts): 18
foci/cell: number of cells with >61 foci ([10]; PANC1, Fig. S4B, cell counts): 0
foci/cell: share of cells with 16-30 foci (Suma 100) ([10]; PANC1, Fig. S4B, share of N): 33.3333
foci/cell: share of cells with 31-45 foci (Suma 100) ([10]; PANC1, Fig. S4B, share of N): 9.091
foci/cell: share of cells with 46-60 foci (Suma 100) ([10]; PANC1, Fig. S4B, share of N): 3.0303
foci/cell: share of cells with <15 foci (Suma 100) ([10]; PANC1, Fig. S4B, share of N): 54.5455
foci/cell: share of cells with >61 foci (Suma 100) ([10]; PANC1, Fig. S4B, share of N): 0
foci/cell, share of cells in class (Suma 100) ([10]; class 16-30 foci/cell): 26.9231
foci/cell, number of cells in class ([10]; class 16-30 foci/cell): 7
foci/cell, share of cells in class (Suma 100) ([10]; class 31-45 foci/cell): 26.9231
foci/cell, number of cells in class ([10]; class 31-45 foci/cell): 7
foci/cell, share of cells in class (Suma 100) ([10]; class 46-60 foci/cell): 15.3846
foci/cell, number of cells in class ([10]; class 46-60 foci/cell): 4
foci/cell, share of cells in class (Suma 100) ([10]; class <15 foci/cell): 3.846
foci/cell, number of cells in class ([10]; class <15 foci/cell): 1
foci/cell, share of cells in class (Suma 100) ([10]; class >61 foci/cell): 26.9231
foci/cell, number of cells in class ([10]; class >61 foci/cell): 7
foci/cell, share of cells in class (Suma 100) ([11]; class 16-30 foci/cell): 32.2835
foci/cell, number of cells in class ([11]; class 16-30 foci/cell): 41
foci/cell, share of cells in class (Suma 100) ([11]; class 31-45 foci/cell): 14.1732
foci/cell, number of cells in class ([11]; class 31-45 foci/cell): 18
foci/cell, share of cells in class (Suma 100) ([11]; class 46-60 foci/cell): 7.874
foci/cell, number of cells in class ([11]; class 46-60 foci/cell): 10
foci/cell, share of cells in class (Suma 100) ([11]; class <15 foci/cell): 37.0079
foci/cell, number of cells in class ([11]; class <15 foci/cell): 47
foci/cell, share of cells in class (Suma 100) ([11]; class >61 foci/cell): 8.661
foci/cell, number of cells in class ([11]; class >61 foci/cell): 11
foci/cell: number of cells with 16-30 foci ([11]; Fig. S4B, cell counts): 24
foci/cell: number of cells with 31-45 foci ([11]; Fig. S4B, cell counts): 5
foci/cell: number of cells with 46-60 foci ([11]; Fig. S4B, cell counts): 2
foci/cell: number of cells with <15 foci ([11]; Fig. S4B, cell counts): 37
foci/cell: number of cells with >61 foci ([11]; Fig. S4B, cell counts): 0
foci/cell: share of cells with 16-30 foci (Suma 100) ([11]; Fig. S4B, share of N): 35.2941
foci/cell: share of cells with 31-45 foci (Suma 100) ([11]; Fig. S4B, share of N): 7.353
foci/cell: share of cells with 46-60 foci (Suma 100) ([11]; Fig. S4B, share of N): 2.941
foci/cell: share of cells with <15 foci (Suma 100) ([11]; Fig. S4B, share of N): 54.4118
foci/cell: share of cells with >61 foci (Suma 100) ([11]; Fig. S4B, share of N): 0
